Experiment: method code SF, from Hansch, C. & Leo, A. (1987). Log P database [Dataset]. Pomona College Medicinal Chemistry Project.
Conditions: not given
Work on `O=[N+]([O-])c1ccc(C=Cc2nc3ccccc3[nH]2)o1` yielded a logP of 1.4. `Cn1ccc(=O)[nH]c1=O` gave a logP of -1.2. Work on `NC(=O)c1ncn2c(=O)n(CCCl)nnc12` yielded a logP of -0.47. For `CCOC(=O)c1ccncc1`, the logP was 1.43. `CC(=O)NC(=O)NC(C)=O` gave a logP of -0.68. Work on `CCOC(=O)C(O)c1ccccc1` (stereo unspecified) yielded a logP of 1.53. `CC(=O)Nc1cccc(/N=N/N(C)C)c1` gave a logP of 1.61. In the case of `N#CN=[N+]([O-])c1cccc(C(F)(F)F)c1`, the logP is reported as 2.52. With `CC1CCCCC1(C)NC(=O)N(CCCl)N=O` (stereo unspecified) the logP was 2.57. `CN1C(=O)c2ccccc2C1=O` showed a logP of 1.31. In the case of `Sc1ncccn1`, the logP is reported as -0.97. Compound `CN(C)/N=N/c1ccccc1C(=O)NCC#N` has a logP of 1.79. Work on `BrCCBr` yielded a logP of 1.96. Compound `CCCCOc1cccc(C=C(C(C)=O)C(=O)OCC)c1` has a logP of 3.12. `CC(=O)Nc1ccc(C(F)(F)F)cc1` gave a logP of 2.52. Compound `CCOC(=O)/C(=C/c1cccc(F)c1)C(C)=O` has a logP of 2.46. `CN(C)C(=O)N(c1ccccc1)c1ccccc1` showed a logP of 2.8. In the case of `c1ccc2c(c1)CCc1ccccc1NC2`, the logP is reported as 2.82. With `CC(=O)OC[C@H]1O[C@@H](NC(=O)N(CCCl)N=O)[C@H](OC(C)=O)[C@@H](OC(C)=O)[C@H]1OC(C)=O` the logP was 1.04. With `C=CC=C` the logP was 1.99. `N#CCc1ccco1` gave a logP of 0.85. With `CCCCS` the logP was 2.28. In the case of `C=C(C)C`, the logP is reported as 2.34. Compound `CC1=Nc2ccc(Br)cc2S(=O)(=O)N1` has a logP of 1.37. `CCC1(c2ccccc2)CCC(=O)NC1=O` (stereo unspecified) showed a logP of 1.9. For `CCOC(=O)CC(=O)C=Cc1ccc(C)cc1`, the logP was 2.63. Compound `FS(F)(F)(F)(F)c1ccccc1` has a logP of 3.36. Compound `CC(=O)c1ccccc1OC(=O)N(C)C` has a logP of 0.93. `CCOC(=O)C(=Cc1ccc(Cl)cc1Cl)C(=O)OCC` gave a logP of 3.49. Compound `S=c1cccc[nH]1` has a logP of -0.13. For `CC1=Nc2c(Cl)cccc2S(=O)(=O)N1`, the logP was 0.72. Compound `COP(N)(=O)Oc1cc(Cl)c(Cl)cc1Cl` (stereo unspecified) has a logP of 2.53. `N#C/C(=C\c1ccccc1)C(N)=O` gave a logP of 1.5. Work on `N#CN=[N+]([O-])c1cccc(Br)c1` yielded a logP of 2.56. Compound `CN(N=O)C(=O)N[C@H]1C(O)O[C@H](CO)[C@@H](O)[C@@H]1O` (stereo partly specified) has a logP of -1.45. `CCC(=O)OCCOc1ccc(C=O)cc1OC` gave a logP of 1.33. `NC(=O)N/N=C/c1ccccc1` showed a logP of 1.27. `O=C(O)c1cc(=O)c2cc3c(cc2o1)CCCC3` gave a logP of 3.4. `N#Cc1ccco1` showed a logP of 0.96. `CCCCC(=O)c1ccc[nH]1` gave a logP of 2.42. Compound `CN(C)C(=O)Oc1ccccc1[N+](=O)[O-]` has a logP of 1.35. For `O=S1(=O)NC(c2ccco2)=Nc2ccccc21`, the logP was 1.06. `c1ccc2[nH]c(CCCCCCc3nc4ccccc4[nH]3)nc2c1` gave a logP of 1.66. Compound `CCOC(=O)C(=Cc1cccc(F)c1)C(=O)OCC` has a logP of 3.19. For `Cn1cnc2ccccc2c1=O`, the logP was 0.69. `COc1ccc2[nH]c(CCCc3nc4cc(OC)ccc4[nH]3)nc2c1` gave a logP of 1.75. Work on `O=[N+]([O-])c1ccc(/C=C/c2cccc(CO)n2)o1` yielded a logP of 1.37. Work on `CSCCC(=O)N(C)c1ccc(S(=O)(=O)N(C)C)cc1` yielded a logP of 0.99. In the case of `CNC(=O)Oc1ccccc1C1OCCO1`, the logP is reported as 0.67. Work on `Cc1ccc(OC(=O)CNC(=O)c2ccccc2)cc1` yielded a logP of 2.83. `OCCCc1nc2ccccc2[nH]1` gave a logP of 1.25. Work on `CC1=Nc2ccccc2S(=O)(=O)N1` yielded a logP of 0.29. Compound `c1ccc(-c2nc3ccccc3s2)cc1` has a logP of 4.26. `CO[C@H]1C=CO[C@@]2(C)Oc3c(C)c(O)c4c(O)c(c(C=NN5CCNCC5)c(O)c4c3C2=O)NC(=O)C(C)=CC=C[C@H](C)[C@H](O)[C@@H](C)[C@@H](O)[C@@H](C)[C@H](OC(C)=O)[C@@H]1C` showed a logP of 1.12. Work on `CS(=O)(=O)OCCCCOS(C)(=O)=O` yielded a logP of -0.52. In the case of `O=C1OC2(CCCC2)c2ccccc21`, the logP is reported as 2.56. For `CCOC(=O)c1cccnc1`, the logP was 1.34. `Clc1ccc2[nH]c(CCc3nc4cc(Cl)ccc4[nH]3)nc2c1` showed a logP of 1.13. Compound `c1ccc2[nH]c(CCCCc3nc4ccccc4[nH]3)nc2c1` has a logP of 1.59. Compound `Oc1ccnc2cc(C(F)(F)F)ccc12` has a logP of 2.05. `COP(=S)(NC(C)C)Oc1ccc(Cl)cc1Cl` (stereo unspecified) showed a logP of 4.3. `CN(Cc1ccc(C#N)cc1)/N=N/c1ccc(C(=O)O)cc1` showed a logP of 3.6. With `CCC1(c2ccccc2)NC(=O)NC1=O` (stereo unspecified) the logP was 1.53. Work on `NC(=O)Nc1cccc(NC(N)=O)c1` yielded a logP of 0.58. For `O=S1(=O)NC(c2cccs2)=Nc2ccccc21`, the logP was 1.68. In the case of `OC/C=C/c1ccccc1`, the logP is reported as 1.95. In the case of `O=c1[nH]cc(CO)c(=O)[nH]1`, the logP is reported as -1.94. Compound `O=C(O)C(Cl)(Cl)Cl` has a logP of 1.33. Compound `CC(=O)NC1CCSC1=O` (stereo unspecified) has a logP of -0.35. With `O=S1(=O)NC(C(F)(F)F)=Nc2cc(Cl)ccc21` the logP was 1.65. With `C1=CCOC1` the logP was 0.46. With `CCOC(=O)CON=Cc1ccc(OCC(=O)OCC)c(OC)c1` the logP was 1.87. Work on `COc1ccc2cnccc2c1` yielded a logP of 2.22. With `C/N=C/c1ccccc1` the logP was 1.64. With `CCc1n[nH]c(=O)[nH]c1=O` the logP was 0.22. Compound `O=C(Cc1ccccc1)c1ccccc1` has a logP of 3.18. For `CCOC(=O)C(=Cc1ccc(OC)c(OC)c1)C(=O)OCC`, the logP was 2.89. Work on `CNP(=O)(OC)Oc1ccccc1Cl` (stereo unspecified) yielded a logP of 1.61. In the case of `Cc1cccc(OC(=O)N(C)C)c1`, the logP is reported as 2.05. `CC(=O)Nc1ccc(S(C)(=O)=O)cc1` showed a logP of 0.58. `CCCCOC1NC(=O)NC(=O)C1=[N+]=[N-]` (stereo unspecified) gave a logP of -0.55. Work on `Cc1ccc2[nH]c(CCc3nc4cc(C)ccc4[nH]3)nc2c1` yielded a logP of 1.39. For `CC(C)c1ccccc1OC(=O)N(C)C`, the logP was 2.65. With `CC(=O)NNC(=O)c1ccccn1` the logP was -0.59. Compound `CCOCC1CNc2nc(N)[nH]c(=O)c2N1` (stereo unspecified) has a logP of -0.68. Compound `CC(=O)Oc1ccccc1I` has a logP of 2.55. `CNP(=O)(OC)Oc1ccc(Cl)cc1Cl` (stereo unspecified) gave a logP of 2.41. Compound `S=C=Nc1ccccc1` has a logP of 3.25. `Nc1ccccc1I` gave a logP of 2.32. In the case of `C1=CCCCC1`, the logP is reported as 2.86. `C1COCCO1` showed a logP of -0.27. In the case of `CCOc1ccc(OC(C)=O)cc1`, the logP is reported as 1.95. `CC(=O)N(C)/N=N/c1ccc(F)cc1` gave a logP of 2.77. With `O=C(O)c1ccc(C(F)(F)F)cc1` the logP was 3.1. `CCCCC[N+](=O)[O-]` gave a logP of 2.01. In the case of `O=P(c1ccccc1)(c1ccccc1)c1ccccc1`, the logP is reported as 2.85. Work on `CSc1ccc(NC(C)=O)cc1` yielded a logP of 2.03. With `O=C(Nc1ccccc1)c1cc(N2CC2)c([N+](=O)[O-])cc1[N+](=O)[O-]` the logP was 2.23. Compound `CC1=Nc2c(C)cccc2S(=O)(=O)N1` has a logP of 0.52. `COc1cc2c(c3c1c(=O)c1ccccc1n3C)C=CC(C)(C)O2` gave a logP of 3.67. For `CC(=O)Nc1ccc(F)cc1`, the logP was 1.43. Compound `Nc1cc(C(F)(F)F)cc(C(F)(F)F)c1` has a logP of 3.57. In the case of `COc1ccc(OC(=O)CNC(=O)c2ccccc2)cc1`, the logP is reported as 2.28. Work on `CCC(O)CC` yielded a logP of 1.21. In the case of `NC(=S)c1ccccc1`, the logP is reported as 1.49. Work on `CC(=O)Nc1ccc2c(=O)c(C)c(C)oc2c1[N+](=O)[O-]` yielded a logP of 1.61. Compound `O=[N+]([O-])c1ccc2[nH]ccc2c1` has a logP of 2.53. `CCCC(O)CCC` gave a logP of 2.22. Work on `NC(=O)Nc1cnc2ccccc2n1` yielded a logP of 1.3. Compound `CN(C)/N=N/c1cccc([N+](=O)[O-])c1` has a logP of 2.75. `Cn1c(=O)cnc2ccccc21` showed a logP of 0.79. In the case of `O=[N+]([O-])c1cccc(I)c1`, the logP is reported as 2.94. `CC(C)CN(CC(C)C)C(=O)C=Cc1ccc2c(c1)OCO2` gave a logP of 4.37. `COc1ccc(-c2nc3cnccc3[nH]2)c(OCCCCl)c1` gave a logP of 3.53. In the case of `NC(=O)Nc1ccc(C(O)C(CO)NC(=O)C(Cl)Cl)cc1` (stereo unspecified), the logP is reported as -0.6. Work on `c1ccc(-c2ccc3ccccc3n2)cc1` yielded a logP of 3.9. In the case of `CCOC(=O)C(=Cc1ccccc1Cl)C(C)=O`, the logP is reported as 2.84. In the case of `COc1ccc2[nH]c(CCCCc3nc4cc(OC)ccc4[nH]3)nc2c1`, the logP is reported as 1.42. For `Oc1cccnc1`, the logP was 0.48. Work on `CCC1(CCC(C)C)C(=O)NC(=S)NC1=O` yielded a logP of 2.98. For `CNc1ccccn1`, the logP was 1.07. With `CCOP(=S)(OCC)SCS(=O)(=O)C(C)(C)C` the logP was 2.48. With `O=C1c2c(O)ccc(O)c2C(=O)c2c(NCCNCCO)ccc(NCCNCCO)c21` the logP was 0.07. For `C[C@@H]1C[C@H]2[C@@H]3C[C@H](F)C4=CC(=O)C(Cl)=C[C@]4(C)[C@@]3(Cl)[C@@H](O)C[C@]2(C)[C@@]1(O)C(=O)COC(=O)C(C)(C)C`, the logP was 4.73. With `COc1cc(S(C)=O)ccc1-c1cn2ccnc(OC)c2n1` (stereo unspecified) the logP was 1.49. `COc1ccc(OC(=O)N(C)C)cc1` showed a logP of 1.53. Compound `O=c1cnc2ccccc2[nH]1` has a logP of 0.8. `CC(=O)C(=Cc1ccccc1)C(C)=O` showed a logP of 1.59. `COc1cccc(C)c1` showed a logP of 2.66. In the case of `O=NN(CCF)C(=O)NC1CCC(NC(=O)N(CCF)N=O)CC1` (stereo unspecified), the logP is reported as 1.34.

Same assay, conditions: pH 0.5
For `CC(O)COc1cccc2oc(C(=O)O)cc(=O)c12` (stereo unspecified), the logD was 1.32.

Same assay, conditions: pH 1.0
With `O=C(O)C(c1ccccc1)c1ccccc1` the logD was 3.09. With `O=C(O)C(CO)c1ccccc1` (stereo unspecified) the logD was 0.77.

Same assay, conditions: pH 2.0
`CCC1(CC2COc3ccccc3O2)C(=O)NC(=O)NC1=O` (stereo unspecified) showed a logD of 1.85.

Same assay, conditions: pH 3.0
Work on `CSCC1=C(C(=O)O)N2C(=O)C(NC(=O)Cc3cccs3)C2SC1` (stereo unspecified) yielded a logD of 1.01. With `CC(=O)OCC1=C(C(=O)O)N2C(=O)C(NC(=O)Cc3ccccc3)C2SC1` (stereo unspecified) the logD was 0.2.

Same assay, conditions: pH 6.8
Compound `CC(=O)OCOC(=O)C1=C(CSC2(C)N=NN=N2)CSC2C(NC(=O)C(O)c3ccccc3)C(=O)N12` (stereo unspecified) has a logD of 0.75.

Same assay, conditions: pH 7.0
With `CC(=O)c1cccc(C(C)=O)c1` the logD was 1.43. For `CS(=O)(=O)c1ccc(Cl)cc1`, the logD was 1.06. `CO[C@H]1[C@@H](O)[C@@H](C)O[C@H](O[C@H]2[C@H](Oc3cccc4c(O)c5c(=O)oc6ccc(C)c7c(=O)oc(c34)c5c67)O[C@H](C)[C@H](O)[C@@H]2O)[C@@H]1O` showed a logD of 1.8.

Same assay, conditions: pH 7.4
`N=c1ccccn1O` showed a logD of -0.87. Compound `O=NN(CCCl)C(=O)N[C@@H]1[C@@H](O)[C@H](O)[C@@H](CO)O[C@H]1O` has a logD of -1.02. For `Nc1nncs1`, the logD was -0.57. `CN(C)/N=N/c1ccccc1Cl` showed a logD of 3.03.

Same assay, conditions: pH 7.5
For `CC1OC(C)OC(C)O1` (stereo unspecified), the logD was 0.67.

Same assay, conditions: pH 8.0
For `CC(=O)OC(OC(C)=O)c1ccc([N+](=O)[O-])o1`, the logD was 1.06. With `COc1ccc(-c2nc3ccccc3[nH]2)c(OC)c1` the logD was 2.59.

Same assay, conditions: pH 11.0
In the case of `c1cncc(CN2CCCCC2)c1`, the logD is reported as 1.49.

Same assay, conditions: pH 13.0
`c1ccc(N2CCCCC2)cc1` gave a logD of 2.98. `Nc1nc(N)c2ccccc2n1` gave a logD of 1. Compound `CCN(CC)CC(O)c1ccccc1` (stereo unspecified) has a logD of 2.02.

— the SangsterLogP compilation
